{
  "source": "patent US20070160491A1",
  "about": "“Method For Determining Lumen Penetration Of A Vapor Phase Sterilant” (priority 2002, published 2007)",
  "key": {"[1]": {"conditions": "cited from earlier work"}, "[2]": {"system": "biological indicators (test microorganisms)", "text": "However, other process variables are also important, such as chamber and load temperature, size and composition of the load and exposure time. For a fixed load configuration in a particular sterilizer with a qualified sterilization cycle, temperature remains relatively constant during injection, so concentration and exposure time become the most important control variables. Area under a concentration-time curve is a useful index for quantifying cycle performance to compare with efficacy as measured via biological indicators.\n(§1) An estimate of the area under the concentration-time curve is obtained by summing the one-second concentration values in the injection and diffusion steps of the cycle, as shown in Table 1 for sterilization cycles in a STERRAD® 200 […] sterilizer available from Advanced Sterilization Products division of Ethicon, Inc., Irvine, Calif., with different lumens in the validation load. The area scale for stainless steel (SS) is established by setting the value of the rate constant k equal to 0.46 sec^−1 to give an area of approximately 100 mg−sec/l for the cycles with 3 mm×500 mm stainless steel lumens at 30° C."}, "[3]": {"conditions": "cited from earlier work", "remark": "listed apart in the source"}, "[4]": {"conditions": "30 °C", "protocol": "(§2) Correcting the rate constant from 0.46 sec^−1 at 30° C. to 1.41 sec^−1 at 5° C. is initiated by writing the rate constant as the sum of the decomposition rate constant k^D and the condensation rate constant k^C. […] For a rate constant 0.46 sec^−1 at 30° C., each individual rate constant of decomposition k^D and condensation k^C is approximately 0.46/2=0.23 sec^−1. […] The rate constant of decomposition k^D at 5° C. is calculated from the rate constant of decomposition k^D at 30° C. and the rate factors for decomposition at 30° C. and 5° C.: k^D at 5° C.=0.23 sec^−1×(1 rate factor at 5° C./7 rate factor at 30° C.)=0.03 sec^−1. […] Finally, the rate constant at 5° C. is calculated as the sum of the rate constants of condensation k^C and of decomposition k^D at 5° C.: k at 5° C.=1.38 sec^−1+0.03 sec^−1=1.41 sec^−1."}, "[5]": {"conditions": "for rate constant of condensation k^C / rate constant of decomposition k^D: 3 mm stainless steel lumen", "text": "k=rate constant for losses in the lumen, sec^−1\nThe rate of mass input per volume to the lumen 20 by internal processes is a negative term, whenever mass is lost in the lumen 20 by decomposition, absorption, adsorption and condensation. In that case the rate constant k is a negative number.\nThe rate constant k cannot be measured experimentally inside the lumen 20 without disturbing the internal environment, so a value is assigned for each lumen material, such as stainless steel and polyethylene. The value is adjusted to provide an area scale, which correlates efficacy results from the sterilization cycles, as discussed below.\nas §1, §2\nThe adjustment for diameter is made in Table 1 by correcting the rate constant 0.46 sec^−1 for 3 mm stainless steel lumens to 4.14 sec^−1 for 1 mm lumens with factors for the surface to volume ratio and diffusion radius ratio.\nSurface to volume ratio correction factor=(surface/volume)1 mm/(surface/volume)3 mm=(2πrL)1 mm/(2πrL/πr^2L)3 mm=(1/r)1 mm/(1/r)3 mm=[…]=1.5 mm/0.5 mm=3\nIn addition to correction for surface to volume ratio, correction of the rate constant 0.46 sec^−1 for diffusion radius is necessary, because diffusion to the wall of the smaller lumen is greater than for the larger one. Diffusion radius ratio correction factor=(r)3 mm/(r)1 mm=1.5 mm/0.5 mm=3\nThe area scale for the second lumen material, polyethylene (PE), in Table 1 is established similarly for a limiting case in the STERRAD® 200 Sterilizer. The rate constant is set at 0.33 sec^−1 for 1 mm×500 mm lumens to give an area of approximately 100 mg−sec/l. […] The rate constant 0.33 sec^−1 for lumens with 1 mm diameter is corrected with factors for the surface to volume ratio and diffusion radius ratio to obtain the rate constant 0.037 sec-^−1 for 3 mm lumens."}, "[6]": {"conditions": "lumen 0.8 × 100 mm SS, 30 °C, injection time 6.5 min"}, "[7]": {"conditions": "lumen 0.8 × 150 mm SS, 30 °C, injection time 6.5 min"}, "[8]": {"conditions": "lumen 1 × 125 mm SS, 30 °C, injection time 6.5 min"}, "[9]": {"conditions": "lumen 1 × 500 mm PE, 30 °C, injection time 6.5 min"}, "[10]": {"conditions": "lumen 1 × 700 mm PE, 30 °C, injection time 6.5 min"}, "[11]": {"conditions": "lumen 3 × 400 mm SS, 5 °C, injection time 6.5 min"}, "[12]": {"conditions": "lumen 3 × 400 mm SS, 30 °C, injection time 1 min"}, "[13]": {"conditions": "lumen 3 × 400 mm SS, 30 °C, injection time 2 min"}, "[14]": {"conditions": "lumen 3 × 400 mm SS, 30 °C, injection time 6.5 min"}, "[15]": {"conditions": "lumen 3 × 500 mm SS, 30 °C, injection time 6.5 min"}, "[16]": {"conditions": "lumen 3 × 1000 mm PE, 30 °C, injection time 6.5 min"}, "[17]": {"conditions": "lumen 3 × 1500 mm PE, 30 °C, injection time 6.5 min"}},
  "note": "Where “and” joins values, the source holds several entries; their conditions need not be identical. Equal values may be shown once. Read-outs that look alike come from different tables or passages of the source.",
  "data": [
    {"smiles": "OO", "note": "[hydrogen peroxide]", "values": [
      {"measurement": "vapor pressure of hydrogen peroxide", "setting": "[1]; at 5 °C", "value": 0.46, "unit": "mm Hg"},
      {"measurement": "vapor pressure of hydrogen peroxide", "setting": "[1]; at 30 °C", "value": 2.77, "unit": "mm Hg"},
      {"measurement": "Fraction Positive Biological Indicators", "setting": "[2]; [6]", "value": "0/48"},
      {"measurement": "Indicator Results Zone", "setting": "[2]; [6]", "value": "Negative"},
      {"measurement": "Fraction Positive Biological Indicators", "setting": "[2]; [7]", "value": "2/24"},
      {"measurement": "Indicator Results Zone", "setting": "[2]; [7]", "value": "Positive"},
      {"measurement": "Fraction Positive Biological Indicators", "setting": "[2]; [8]", "value": "0/36"},
      {"measurement": "Indicator Results Zone", "setting": "[2]; [8]", "value": "Negative"},
      {"measurement": "Fraction Positive Biological Indicators", "setting": "[2]; [9]", "value": "0/36"},
      {"measurement": "Indicator Results Zone", "setting": "[2]; [9]", "value": "Mixed"},
      {"measurement": "Fraction Positive Biological Indicators", "setting": "[2]; [10]", "value": "1/12"},
      {"measurement": "Indicator Results Zone", "setting": "[2]; [10]", "value": "Positive"},
      {"measurement": "Fraction Positive Biological Indicators", "setting": "[2]; [11]", "value": "1/72"},
      {"measurement": "Indicator Results Zone", "setting": "[2]; [11]", "value": "Positive"},
      {"measurement": "Fraction Positive Biological Indicators", "setting": "[2]; [12]", "value": "4/72"},
      {"measurement": "Indicator Results Zone", "setting": "[2]; [12]", "value": "Mixed"},
      {"measurement": "Fraction Positive Biological Indicators", "setting": "[2]; [13]", "value": "0/72"},
      {"measurement": "Indicator Results Zone", "setting": "[2]; [13]", "value": "Mixed"},
      {"measurement": "Fraction Positive Biological Indicators", "setting": "[2]; [14]", "value": "0/72"},
      {"measurement": "Indicator Results Zone", "setting": "[2]; [14]", "value": "Negative"},
      {"measurement": "Fraction Positive Biological Indicators", "setting": "[2]; [15]", "value": "0/96"},
      {"measurement": "Indicator Results Zone", "setting": "[2]; [15]", "value": "Mixed"},
      {"measurement": "Fraction Positive Biological Indicators", "setting": "[2]; [16]", "value": "0/36"},
      {"measurement": "Indicator Results Zone", "setting": "[2]; [16]", "value": "Negative"},
      {"measurement": "Indicator Results Zone", "setting": "[2]; lumen 3 × 1500 mm PE, 30 °C, injection time 20, 25, 30 min", "value": "Negative"},
      {"measurement": "Fraction Positive Biological Indicators", "setting": "[2]; [17]", "value": "1/36"},
      {"measurement": "Indicator Results Zone", "setting": "[2]; [17]", "value": "Mixed"},
      {"measurement": "Fraction Positive Biological Indicators", "setting": "[2]; lumen 3 × 1500 mm PE, 30 °C, injection time 20 min", "value": "0/12"},
      {"measurement": "Fraction Positive Biological Indicators", "setting": "[2]; lumen 3 × 1500 mm PE, 30 °C, injection time 25 min", "value": "0/12"},
      {"measurement": "Fraction Positive Biological Indicators", "setting": "[2]; lumen 3 × 1500 mm PE, 30 °C, injection time 30 min", "value": "0/12"},
      {"measurement": "Fraction Positive BIs", "setting": "[2]; lumen 3 × 1500 mm PE, 30 °C, injection times 20, 25, 30 min pooled", "value": "0/36"},
      {"measurement": "Rate Factor for Decomposition", "setting": "[3]; 5 °C (base case)", "value": 1},
      {"measurement": "Rate Factor for Decomposition", "setting": "[3]; 5 °C (base case), listed as Hydrogen Peroxide", "value": 1, "unit": "Base Case"},
      {"measurement": "Rate Factor for Decomposition", "setting": "[3]; 15 °C", "value": 2.2},
      {"measurement": "Rate Factor for Decomposition", "setting": "[3]; 25 °C", "value": 4.84},
      {"measurement": "Rate Factor for Decomposition", "setting": "[3]; 35 °C", "value": 10.65},
      {"measurement": "Rate Factor for Decomposition", "setting": "[3]; 45 °C", "value": 23.4},
      {"measurement": "factor by which the decomposition rate increases", "setting": "[3]; per each 10 °C rise in temperature", "value": 2.2},
      {"measurement": "Rate Factor for Decomposition", "setting": "[4]", "value": 7},
      {"measurement": "−k, rate constant for losses in the lumen", "setting": "[5]; 0.8 mm stainless steel lumens, 30 °C, k3 mm × 3.75 × 3.75", "value": 6.47, "unit": "s⁻¹"},
      {"measurement": "−k, rate constant for losses in the lumen", "setting": "[5]; 0.8 mm stainless steel lumens, 30 °C, k3 mm × 3.75 × 3.75, listed as H2O2", "value": 6.47, "unit": "s⁻¹"},
      {"measurement": "−k, rate constant for losses in the lumen", "setting": "[5]; 1 mm polyethylene lumens, 30 °C, k chosen to give 100 mg-sec/l area threshold", "value": 0.33, "unit": "s⁻¹"},
      {"measurement": "−k, rate constant for losses in the lumen", "setting": "[5]; 1 mm polyethylene lumens, 30 °C, k chosen to give 100 mg-sec/l area threshold, listed as H2O2", "value": 0.33, "unit": "s⁻¹"},
      {"measurement": "−k, rate constant for losses in the lumen", "setting": "[5]; 1 mm stainless steel lumens, 30 °C, k3 mm × 3 × 3", "value": 4.14, "unit": "s⁻¹"},
      {"measurement": "−k, rate constant for losses in the lumen", "setting": "[5]; 1 mm stainless steel lumens, 30 °C, k3 mm × 3 × 3, listed as H2O2", "value": 4.14, "unit": "s⁻¹"},
      {"measurement": "−k, rate constant for losses in the lumen", "setting": "[5]; 1 mm stainless steel lumens, 30 °C, k3 mm × 3 × 3, listed as Hydrogen Peroxide", "value": "4.14 ^d sec^−1"},
      {"measurement": "−k, rate constant for losses in the lumen", "setting": "[5]; 3 mm polyethylene lumens, 30 °C, k1 mm/(3 × 3)", "value": 0.037, "unit": "s⁻¹"},
      {"measurement": "−k, rate constant for losses in the lumen", "setting": "[5]; 3 mm polyethylene lumens, 30 °C, k1 mm/(3 × 3), listed as H2O2", "value": 0.037, "unit": "s⁻¹"},
      {"measurement": "−k, rate constant for losses in the lumen", "setting": "[5]; 3 mm polyethylene lumens, 30 °C, k1 mm/(3 × 3), listed as Hydrogen Peroxide", "value": "0.037 ^f sec^−1 and 0.037 sec^−1"},
      {"measurement": "rate constant of condensation k^C", "setting": "[5]; 5 °C", "value": 1.38, "unit": "s⁻¹"},
      {"measurement": "rate constant of decomposition k^D", "setting": "[5]; 5 °C", "value": 0.03, "unit": "s⁻¹"},
      {"measurement": "rate constant of condensation k^C", "setting": "[5]; 30 °C", "value": "~0.23", "unit": "s⁻¹"},
      {"measurement": "rate constant of decomposition k^D", "setting": "[5]; 30 °C", "value": "~0.23", "unit": "s⁻¹"},
      {"measurement": "−k, rate constant for losses in the lumen", "setting": "[5]; 3 mm stainless steel lumens, 5 °C, calculated from k at 30 °C, vapor pressure data and decomposition rate factor", "value": 1.41, "unit": "s⁻¹"},
      {"measurement": "−k, rate constant for losses in the lumen", "setting": "[5]; 3 mm stainless steel lumens, 5 °C, calculated from k at 30 °C, vapor pressure data and decomposition rate factor, listed as H2O2", "value": 1.41, "unit": "s⁻¹"},
      {"measurement": "−k, rate constant for losses in the lumen", "setting": "[5]; 3 mm stainless steel lumens, 5 °C, calculated from k at 30 °C, vapor pressure data and decomposition rate factor, listed as Hydrogen Peroxide", "value": "1.41 ^c sec^−1"},
      {"measurement": "−k, rate constant for losses in the lumen", "setting": "[5]; 3 mm stainless steel lumens, 30 °C, k chosen to give 100 mg-sec/l area threshold", "value": 0.46, "unit": "s⁻¹"},
      {"measurement": "−k, rate constant for losses in the lumen", "setting": "[5]; 3 mm stainless steel lumens, 30 °C, k chosen to give 100 mg-sec/l area threshold, listed as H2O2", "value": 0.46, "unit": "s⁻¹"}
    ]}
  ]
}
